Measured values as given in ChEMBL document CHEMBL1149187, “Design, synthesis, and biological activity of 4-[(4-cyano-2-arylbenzyloxy)-(3-methyl-3H-imidazol-4-yl)methyl]benzonitriles as potent and selective farnesyltransferase inhibitors” (J Med Chem, 2004).
Each block holds one compound with its values, some of them ahead of it.

Assays:
[1] = Area under plasma concentration time curve in dog upon oral administration
[2] = Half-life in dog upon oral administration; conditions: in vivo
[3] = target: T1, Protein farnesyltransferase (Homo sapiens, UniProt P49354+P49356); experiment: (§1) Inhibition of Farnesyltransferase; format: protein-complex assay
[4] = target: T1, Protein farnesyltransferase; experiment: Effective concentration required for inhibition of farnesylation of Ras protein in NIH3T3 cells; format: functional, cell-based, Mus musculus
[5] = in vivo; conditions: dog, plasma
[6] = target: T1, Protein farnesyltransferase; experiment: as §1; format: protein-complex assay; remark: listed apart in the source
[7] = target: Geranylgeranyl transferase type I (Homo sapiens, UniProt P49354+P53609); experiment: Inhibition of Geranylgeranyl transferase type I; format: protein-complex assay
[8] = in vivo; conditions: dog
[9] = tested on: Canis familiaris; experiment: Half-life in dog upon oral administration; Unable to calculate; format: ADME, organism-based, Canis lupus familiaris; conditions: in vivo
[10] = organism: Canis familiaris; experiment: Plasma clearance in dog; Unable to calculate; format: ADME, organism-based, Canis lupus familiaris; conditions: in vivo

SMILES: Cc1ccc(-c2cc(C#N)ccc2COC(c2ccc(C#N)cc2)c2cncn2C)cc1 (stereo not given)
- EC50 [4]: > 100 nM

SMILES: COc1cccc(-c2cc(NS(C)(=O)=O)ccc2COC(c2ccc(C#N)cc2)c2cncn2C)c1 (stereo not given)
- EC50 [4]: > 100 nM

SMILES: Cn1cncc1C(OCc1ccc(C#N)cc1NCc1cc(F)cc(F)c1)c1ccc(C#N)cc1 (stereo not given)
- EC50 [4]: 150 nM

SMILES: Cn1cncc1C(OCc1ccc(C#N)cc1-c1ccc(F)c(F)c1)c1ccc(C#N)cc1 (stereo not given)
- EC50 [4]: 96 nM

SMILES: Cc1ncc(C(OCc2ccc(C#N)cc2-c2cccc(Cl)c2)c2ccc(C#N)cc2)n1C (stereo not given)
- EC50 [4]: 154 nM

SMILES: COCC(=O)Nc1ccc(COC(c2ccc(C#N)cc2)c2cncn2C)c(-c2cccc(OC)c2)c1 (stereo not given)
- EC50 [4]: > 100 nM

SMILES: Cn1cncc1C(OCc1ccc(Cl)cc1-c1cccc(Cl)c1)c1ccc(C#N)cc1 (stereo not given)
- EC50 [4]: 390 nM

SMILES: COc1cccc(-c2cc(C=O)ccc2COC(c2ccc(C#N)cc2)c2cncn2C)c1 (stereo not given)
- EC50 [4]: > 100 nM

SMILES: Cn1cncc1C(OCc1ccc(C#N)cc1)c1ccc(C#N)c(-c2cccc3ccccc23)c1 (stereo not given)
- IC50 [6]: 0.3 nM
- IC50 [7]: 18 nM

SMILES: Cn1cncc1C(OCc1ccc(C#N)cc1-c1cccc(Cl)c1)c1ccc(C#N)c(F)c1 (stereo not given)
- AUC [1]: 1580 ng·h/mL
- half-life [2]: 522 min
- EC50 [4]: 36 nM
- clearance [5]: 8 mL/min/kg
- bioavailability [8]: 71%

SMILES: COc1cccc(-c2cc(C#N)ccc2COC(c2ccc(C#N)c(Cl)c2)c2cncn2C)c1 (stereo not given)
- EC50 [4]: 130 nM

SMILES: Cn1cncc1C(OCc1ccc(C#N)cc1NS(=O)(=O)c1cccc2ccccc12)c1ccc(C#N)cc1 (stereo not given)
- EC50 [4]: > 100 nM

SMILES: Cn1cncc1C(OCc1ccc(Cl)cc1-c1ccccc1Cl)c1ccc(C#N)cc1 (stereo not given)
- AUC [1]: 9850 ng·h/mL
- T1/2 [9]: Unable to calculate
- Clp [10]: Unable to calculate
- EC50 [4]: > 1000 nM
- bioavailability [8]: 65%

SMILES: Cn1cncc1C(OCc1ccc(C#N)cc1-c1cccc(Cl)c1)c1ccc(C(F)(F)F)cc1 (stereo not given)
- EC50 [4]: > 100 nM

SMILES: N#Cc1ccc(C(OCc2ccc(C#N)cc2-c2ccc3c(c2)OCO3)c2cnccc2Cl)cc1 (stereo not given)
- EC50 [4]: > 100 nM

SMILES: COc1cccc(-c2cc(N)ccc2COC(c2ccc(C#N)cc2)c2cncn2C)c1 (stereo not given)
- EC50 [4]: > 100 nM

SMILES: COc1cccc(-c2cc(C#N)ccc2COC(c2ccc(Cl)cc2)c2cncn2C)c1 (stereo not given)
- EC50 [4]: 17.7 nM

SMILES: Cn1cncc1C(OCc1ccc(Cl)cc1-c1ccc(Cl)cc1)c1ccc(C#N)cc1 (stereo not given)
- EC50 [4]: 525 nM

SMILES: Cn1cncc1C(OCc1ccc(C#N)cc1NS(=O)(=O)c1cccs1)c1ccc(C#N)cc1 (stereo not given)
- EC50 [4]: > 100 nM

SMILES: Cn1cncc1C(OCc1ccc(C#N)cc1-c1cccc2cccnc12)c1ccc(C#N)cc1 (stereo not given)
- EC50 [4]: 15 nM

SMILES: COC(=O)c1ccc(COC(c2ccc(C#N)cc2)c2cncn2C)c(-c2cccc(OC)c2)c1 (stereo not given)
- EC50 [4]: > 100 nM

SMILES: COc1cccc(-c2cc(Cl)ccc2COC(c2ccc(C#N)cc2)c2cncn2C)c1 (stereo not given)
- EC50 [4]: 100 nM

More lines, now with the values ahead:

- AUC [1]: 1130 ng·h/mL
- half-life [2]: 132 min
- IC50 [3]: 0.69 nM
- EC50 [4]: 0.19 nM
- clearance [5]: 16.7 mL/min/kg
SMILES: CCOc1cccc(-c2cc(C#N)ccc2COC(c2ccc(C#N)cc2)c2cncn2C)c1 (stereo not given)

- AUC [1]: 9890 ng·h/mL
- half-life [2]: 282 min
- EC50 [4]: 5.2 nM
- clearance [5]: 6.67 mL/min/kg
SMILES: Cn1cncc1C(OCc1ccc(C#N)cc1-c1cccc(Cl)c1)c1ccc(C#N)cc1 (stereo not given)

- AUC [1]: 1530 ng·h/mL
- half-life [2]: 402 min
- EC50 [4]: 5.1 nM
- clearance [5]: 7.33 mL/min/kg
SMILES: Cn1cncc1C(OCc1ccc(C#N)cc1-c1ccc(OC(F)(F)F)cc1)c1ccc(C#N)cc1 (stereo not given)

- EC50 [4]: 4.6 nM
SMILES: CCOc1cccc(-c2cc(Cl)ccc2COC(c2ccc(C#N)cc2)c2cncn2C)c1 (stereo not given)

- IC50 [6]: 0.4 nM
- EC50 [4]: 8 nM
- IC50 [7]: 24 nM
SMILES: Cn1cncc1C(OCc1ccc(C#N)cn1)c1ccc(C#N)c(-c2cccc3ccccc23)c1 (stereo not given)

- AUC [1]: 100 ng·h/mL
- half-life [2]: 54 min
- EC50 [4]: 9.8 nM
- clearance [5]: 31.2 mL/min/kg
- bioavailability [8]: 15.2%
SMILES: Cc1ncc(C(OCc2ccc(C#N)cc2-c2ccc3c(c2)OCO3)c2ccc(C#N)cc2)n1C (stereo not given)

- AUC [1]: 3660 ng·h/mL
- half-life [2]: 162 min
- EC50 [4]: < 1 nM
- clearance [5]: 10 mL/min/kg
SMILES: Cn1cncc1C(OCc1ccc(C#N)cc1-c1ccc2c(c1)OCO2)c1ccc(C#N)cc1 (stereo not given)

- EC50 [4]: 13 nM
SMILES: CCOc1ccc(-c2cc(C#N)ccc2COC(c2ccc(C#N)cc2)c2cncn2C)cc1 (stereo not given)

- EC50 [4]: 0.81 nM
SMILES: COc1cccc(-c2cc([N+](=O)[O-])ccc2COC(c2ccc(C#N)cc2)c2cncn2C)c1 (stereo not given)

- EC50 [4]: 13 nM
SMILES: Cc1ccc(S(=O)(=O)Nc2cc(C#N)ccc2COC(c2ccc(C#N)cc2)c2cncn2C)cc1 (stereo not given)

- AUC [1]: 5720 ng·h/mL
- half-life [2]: 1100 min
- EC50 [4]: 12 nM
- clearance [5]: 3.17 mL/min/kg
- bioavailability [8]: 96%
SMILES: Cn1cncc1C(OCc1ccc(C#N)cc1C(=O)Nc1ccccc1)c1ccc(C#N)cc1 (stereo not given)

- AUC [1]: 2760 ng·h/mL
- half-life [2]: 78 min
- EC50 [4]: 9.1 nM
- clearance [5]: 5.17 mL/min/kg
SMILES: Cn1cncc1C(OCc1ccc(C#N)cc1-c1ccc2c(c1)OC(F)(F)O2)c1ccc(C#N)cc1 (stereo not given)

- EC50 [4]: 3.3 nM
SMILES: Cn1cncc1C(OCc1ccc(C#N)cc1-c1cccc(Cl)c1)c1ccc(C#N)cc1F (stereo not given)

- EC50 [4]: 3.5 nM
SMILES: Cn1cncc1C(OCc1ccc(C#N)cc1C(=O)Nc1cccc(Cl)c1)c1ccc(C#N)cc1 (stereo not given)

- EC50 [4]: 14 nM
SMILES: Cn1cncc1C(OCc1ccc(C#N)cc1-c1cccc2ccccc12)c1ccc(C#N)cc1 (stereo not given)

- AUC [1]: 760 ng·h/mL
- half-life [2]: 216 min
- EC50 [4]: 7 nM
- clearance [5]: 12.2 mL/min/kg
SMILES: COc1ccc(-c2cc(C#N)ccc2COC(c2ccc(C#N)cc2)c2cncn2C)cc1 (stereo not given)

- AUC [1]: 260 ng·h/mL
- half-life [2]: 132 min
- EC50 [4]: 1 nM
- clearance [5]: 8.5 mL/min/kg
SMILES: COCc1cccc(-c2cc(C#N)ccc2COC(c2ccc(C#N)cc2)c2cncn2C)c1 (stereo not given)
